Laboratory results: US20250250268A1 (SHANGHAI HAOYUAN MEDCHEMEXPRESS CO., LTD., priority 2022, published 2025)
“Also recorded” adds a separate entry of the source.

What was measured:
[1] = tested on: microglia; test: Pharmacological animal experiment: microglia clearance in mice fed PLX5622 crystal forms (IBA1 staining, Image j counting); format: in vivo, C57BL/6J mice; conditions: for 7-day clearance rate / 14-day clearance rate / 7-day number of cells / 14-day number of cells: C57BL/6J mice, in AIN-76A food; for 7-day clearance rate / 14-day clearance rate: administration every other day, average clearance rate of microglia; for 7-day clearance rate / 7-day number of cells: 7 days; for 14-day clearance rate / 14-day number of cells: 14 days; for 7-day number of cells / 14-day number of cells: average statistical number of microglia (total number in brains); for Microglia clearance rate compared with Form A: 7-day or 14-day clearance rate, mice
Procedure: Mice were adaptively fed for 3-6 days upon arrival in the mouse room, with AIN-76A food. Group A was administered PLX5622 compound Form A, and Group B was administered PLX5622 compound Form B.
Formal administration: Administration was conducted every other day, on days 1, 3, 5, 7, 9, 11, and 13. Each time of administration required weighing, and the amount was adjusted to 4 g per mouse (actual consumption around 3 g per mouse).
After anesthesia, mice were immobilized using tape or needles/pins, and the fur on the lateral thorax was lifted with forceps. The skin was then cut with scissors to expose the white sternum. The diaphragm was carefully incised with fine scissors, taking care not to damage the above heart.
A small incision was made on the right atrium. The heart was fixed with forceps, and an injection needle was inserted into the left ventricle from the apex of the heart at an angle roughly parallel to the left-right midline of the heart.
Sucrose gradient dehydration: The mouse brains were fixed in 4% paraformaldehyde overnight and then dehydrated with 20% sucrose solution until the material sank to the bottom, followed by dehydration with 30% sucrose solution until the material sank to the bottom. Embedding and sectioning: get 25-40 μm sections, which are the tissues that need to be stained.
• 1. After washing the sections, blocking was initiated with 5% BSA in PBST for 2 hours. • 2. Incubation with the primary antibody, IBA1 (1:500) in 1% BSA in PBST, at 4° C. for at least 14 hours. • 3. Incubation with Alexa Fluor-conjugated secondary antibody (1:500) in 1% BSA in PBST, at room temperature for 2 hours. • 4. Washed with PBS 3-5 times for 10 minutes each, stained with DAPI, followed by addition of anti-fade reagent, dried overnight, and then photographed and scanned for analysis.
Image j counting: All microglia with complete morphology need to be counted.
Among them, the mice are all 3-month-old male mice; the clearance rates are the average clearance rate and the average statistical number of microglia (total number in brains).

[2] = Drying transformation relationship of Form A-F (vacuum drying, XRPD); conditions: for Description / XRPD results: 60-80° C. vacuum drying; for Stability / conversion of crystal form on drying: dried at high temperatures, solvent removed
[3] = Stability tests of crystal forms under accelerated and low-temperature storage (XRPD, HPLC); format: physicochemical; conditions: for Polymorphic changes on storage (XRPD): accelerated test conditions (40° C., 75% RH) and low-temperature storage conditions (−20° C.)
[4] = Pharmacokinetic determination in rats (feed administration, plasma and brain); format: in vivo; conditions: 1200 ppm in AIN-76A standard feed, 7-day and 14-day groups, Cmax and AUC
Description: Plasma or brain samples from the 2 groups were collected for pharmacokinetic (PK) parameter analysis. For the 7-day group, plasma samples were collected on day 1, day 3, and day 7; after the rats were euthanized on day 7, brain tissue samples were collected. For the […], plasma samples were collected from rats on day 10 and 14; on day 14, the mice were euthanized, and brain tissue samples were collected.
For the processing of plasma samples, rats were anesthetized on days 1, 3, 7 and 10 and 14, and approximately 150 μL of blood was collected via cardiac puncture into anticoagulant centrifuge tubes containing K 2 EDTA. Within 15 minutes of sampling, plasma was obtained by centrifugation at 2000 g for 5 minutes at 4° C. and stored at below −60° C. until analysis. For the processing of brain tissue samples, the rats were euthanized on day 7 and 14, and then the brain tissue was collected. The residual blood on the surface of the tissue was washed away with normal saline, dried with filter paper, weighed, and frozen in dry ice, then store in a refrigerator below −60° C. until sample analysis. Pharmacokinetic (PK) parameters Cmax and AUC were calculated based on a non-compartmental model using WinNonlin 8.2 software. Drug concentrations in mouse plasma and brain tissue were determined.

## COc1ncc(F)cc1CNc1ccc(Cc2c[nH]c3ncc(C)cc23)c(F)n1 [Form A, 6-Fluoro-N-((5-fluoro-2-methoxypyridin-3-yl)methyl)-5-((5-methyl-1H-pyrrolo[2,3-b]pyridin-3-yl)methyl) pyridin-2-amine]
[1]
  7-day clearance rate: 72.6%
  14-day clearance rate: 75.1%
  7-day number of cells: (1337)
  14-day number of cells: (922)
[2]; 2 days
  Description: White to off-white
  XRPD results: Form A
[2]
  Stability / conversion of crystal form on drying: remain stable
[3]; 40° C./75% RH, 5 Days
  Individual Impurity (RRT/%) RRT = 0.33: 0.06%
  Individual Impurity (RRT/%) RRT = 1.50: 0.04%
  Purity (by HPLC %): 99.90%
  XRPD: Form A
[3]; 40° C./75% RH, 10 Days
  Individual Impurity (RRT/%) RRT = 0.33: 0.06%
  Individual Impurity (RRT/%) RRT = 1.50: 0.04%
  Purity (by HPLC %): 99.90%
  XRPD: Form A
[3]; Initial, 0 Day
  Individual Impurity (RRT/%) RRT = 0.33: 0.06%
  Individual Impurity (RRT/%) RRT = 1.50: 0.04%
  Purity (by HPLC %): 99.90%
  XRPD: Form A
[3]
  Polymorphic changes on storage (XRPD): did not undergo any polymorphic changes
[3]; −20° C., 10 months
  Individual Impurity (RRT/%) RRT = 0.33: 0.06%
  Individual Impurity (RRT/%) RRT = 1.50: 0.04%
  Purity (by HPLC %): 99.90%
  XRPD: Form A

## COc1ncc(F)cc1CNc1ccc(Cc2c[nH]c3ncc(C)cc23)c(F)n1 [Form B, 6-Fluoro-N-((5-fluoro-2-methoxypyridin-3-yl)methyl)-5-((5-methyl-1H-pyrrolo[2,3-b]pyridin-3-yl)methyl) pyridin-2-amine]
[1]
  Microglia clearance rate compared with Form A: better than Form A
  7-day clearance rate: 87%
  14-day clearance rate: 90%
  7-day number of cells: (482)
  14-day number of cells: (377)
[1]; listed as crystal form B
  Microglia clearance rate compared with Form A: better clearance rate of microglia cells at 7 or 14 days compared to crystal form A; also recorded: higher rate of microglia cell clearance at 7 days or 14 days
[4]
  Pharmacokinetic performance: better pharmacokinetic performance
[2]; 3 days
  Description: White to off-white
  XRPD results: Form B
[2]
  Stability / conversion of crystal form on drying: remain stable
[3]; 40° C./75% RH, 5 Days
  Individual Impurity (RRT/%) RRT = 1.04: 0.05%
  Individual Impurity (RRT/%) RRT = 1.29: 0.03%
  Purity (by HPLC %): 99.92%
  XRPD: Form B
[3]; 40° C./75% RH, 10 Days
  Individual Impurity (RRT/%) RRT = 1.04: 0.05%
  Individual Impurity (RRT/%) RRT = 1.29: 0.03%
  Purity (by HPLC %): 99.92%
  XRPD: Form B
[3]; Initial, 0 Day
  Individual Impurity (RRT/%) RRT = 1.04: 0.05%
  Individual Impurity (RRT/%) RRT = 1.29: 0.03%
  Purity (by HPLC %): 99.92%
  XRPD: Form B
[3]
  Polymorphic changes on storage (XRPD): did not undergo any polymorphic changes
[3]; −20° C., 10 months
  Individual Impurity (RRT/%) RRT = 1.04: 0.05%
  Individual Impurity (RRT/%) RRT = 1.29: 0.03%
  Purity (by HPLC %): 99.92%
  XRPD: Form B

## COc1ncc(F)cc1CNc1ccc(Cc2c[nH]c3ncc(C)cc23)c(F)n1 [Form C, 6-Fluoro-N-((5-fluoro-2-methoxypyridin-3-yl)methyl)-5-((5-methyl-1H-pyrrolo[2,3-b]pyridin-3-yl)methyl) pyridin-2-amine]
[2]; 24 hours
  Description: White to off-white
  XRPD results: Form A
[2]
  Stability / conversion of crystal form on drying: converted to Form A

## COc1ncc(F)cc1CNc1ccc(Cc2c[nH]c3ncc(C)cc23)c(F)n1 [Form D, 6-Fluoro-N-((5-fluoro-2-methoxypyridin-3-yl)methyl)-5-((5-methyl-1H-pyrrolo[2,3-b]pyridin-3-yl)methyl) pyridin-2-amine]
[2]; 24 hours
  Description: White to off-white
  XRPD results: Form A
[2]
  Stability / conversion of crystal form on drying: converting it to Form A

## COc1ncc(F)cc1CNc1ccc(Cc2c[nH]c3ncc(C)cc23)c(F)n1 [Form E, 6-Fluoro-N-((5-fluoro-2-methoxypyridin-3-yl)methyl)-5-((5-methyl-1H-pyrrolo[2,3-b]pyridin-3-yl)methyl) pyridin-2-amine]
[2]; 24 hours
  Description: White to off-white
  XRPD results: Form A + B

## COc1ncc(F)cc1CNc1ccc(Cc2c[nH]c3ncc(C)cc23)c(F)n1 [Form F, 6-Fluoro-N-((5-fluoro-2-methoxypyridin-3-yl)methyl)-5-((5-methyl-1H-pyrrolo[2,3-b]pyridin-3-yl)methyl) pyridin-2-amine]
[2]; 24 hours
  Description: White to off-white
  XRPD results: Form A + B
